The target in the assay is T1, human Orexin-2 receptor (Homo sapiens, UniProt O43614).
T1 construct: expressed in transfected cells; host or cells: HEK293 cells (transient transfection, Genejuice); membranes
T1 sequence (O43614 1-444): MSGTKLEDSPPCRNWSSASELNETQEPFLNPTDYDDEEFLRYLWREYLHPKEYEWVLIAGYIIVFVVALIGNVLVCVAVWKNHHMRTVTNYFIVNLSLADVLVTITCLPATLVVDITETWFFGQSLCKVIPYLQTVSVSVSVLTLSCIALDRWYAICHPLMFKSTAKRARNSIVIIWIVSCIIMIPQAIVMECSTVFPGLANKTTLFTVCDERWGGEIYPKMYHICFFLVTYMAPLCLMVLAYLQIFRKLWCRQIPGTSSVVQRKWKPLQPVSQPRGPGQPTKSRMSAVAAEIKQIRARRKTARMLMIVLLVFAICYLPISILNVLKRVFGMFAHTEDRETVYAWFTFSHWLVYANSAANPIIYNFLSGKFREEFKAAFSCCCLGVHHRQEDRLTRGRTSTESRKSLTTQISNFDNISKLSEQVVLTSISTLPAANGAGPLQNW
The assay is described as follows: 3H-EMPA radioligand binding assay. The following applies: 3H-EMPA displacement, membranes of HEK293 cells transfected with human Orexin-2 receptor; KI by Cheng-Prussoff; read-out: OX2 pKi ave (converted). The protocol: cDNA encoding the human Orexin-2 receptor was transfected into HEK293 cells using the transfection reagent Genejuice (Novagen). Forty-eight hours after transfection, cells were harvested and washed twice with ice cold phosphate-buffered saline. The pellet was resuspended in ice-cold buffer containing 20 mM Tris-HCl, pH 7.4, 1 mM EDTA and homogenised with an Ultraturax for 30 s at maximum speed. After centrifugation at 48,000 g for 30 min at 4° C., the pellet was resuspended and spun again. The final pellet was resuspended and frozen at −80° C. before use. Protein concentration was determined using the BCA protein assay method.
^3H-EMPA Radioligand Binding Assay
At the end of the incubation, membranes were filtered onto a unifilter, a 96-well white microplate with bonded GF/B filter pre-incubated with 0.5% polyethylenimine, with a Tomtec cell harvester and washed 4 times with distilled water. […] Radioactivity on the filter was counted (1 min) on a microbeta counter after addition of 50 µL of scintillation fluid. […] IC50 values were derived from the inhibition curve and the equilibrium dissociation constant (KI) values were calculated using the Cheng-Prussoff equation.
In the case of `Cc1ccc(C)c(N2C(=O)N(Cc3c(F)cccc3Cl)c3ccccc3S2(=O)=O)c1` [Example 32, 4-(2-chloro-6-fluorobenzyl)-2-(2,5-dimethylphenyl)-2H-1,2,4-benzothiadiazin-3(4H)-one 1,1-dioxide], the Ki was 28.2 nM.

With `CCc1ccccc1N1C(=O)N(Cc2c(F)cccc2Cl)c2ccccc2S1(=O)=O` [Example 33, 4-(2-chloro-6-fluorobenzyl)-2-(2-ethylphenyl)-2H-1,2,4-benzothiadiazin-3(4H)-one 1,1-dioxide], the Ki is 28.2 nM.

For the compound `Cc1ccc(N2C(=O)N(Cc3c(F)cccc3Cl)c3ccccc3S2(=O)=O)cc1C` [Example 34, 4-(2-chloro-6-nuorobenzyl)-2-(3,4-dimethylphenyl)-2H-1,2,4-benzothiadiazin-3(4H)-one 1,1-dioxide], the Ki is 1.12 nM.

Regarding `COc1ccccc1N1C(=O)N(Cc2c(F)cccc2Cl)c2ccccc2S1(=O)=O` [Example 35, 4-(2-chloro-6-fluorobenzyl)-2-(2-methoxyphenyl)-2H-1,2,4-benzothiadiazin-3(4H)-one 1,1-dioxide], the Ki was 31.6 nM.

As to `COc1cccc(N2C(=O)N(Cc3c(F)cccc3Cl)c3ccccc3S2(=O)=O)c1` [Example 36, 4-(2-chloro-6-fluorobenzyl)-2-(3-methoxyphenyl)-2H-1,2,4-benzothiadiazin-3(4H)-one 1,1-dioxide], the Ki is 15.8 nM.

Consider `CCc1ccc(N2C(=O)N(Cc3c(F)cccc3Cl)c3ccccc3S2(=O)=O)cc1` [Example 37, 4-(2-chloro-6-fluorobenzyl)-2-(4-ethylphenyl)-2H-1,2,4-benzothiadiazin-3(4H)-one 1,1-dioxide], for which the Ki was 5.01 nM.

Turning to `Cc1cccc(N2C(=O)N(Cc3c(F)cccc3Cl)c3ccccc3S2(=O)=O)c1C` [Example 38, 4-(2-chloro-6-fluorobenzyl)-2-(2,3-dimethylphenyl)-2H-1,2,4-benzothiadiazin-3(4H)-one 1,1-dioxide], the Ki is 15.8 nM.

As for `O=C1N(Cc2c(F)cccc2Cl)c2ccccc2S(=O)(=O)N1Cc1ccc(F)cc1` [Example 39, 4-(2-chloro-6-fluorobenzyl)-2-(4-fluorobenzyl)-2H-1,2,4-benzothiadiazin-3(4H)-one 1,1-dioxide], the Ki is 20 nM.

In the case of `O=C1N(Cc2c(F)cccc2Cl)c2ccccc2S(=O)(=O)N1Cc1ccccc1` [Example 40, 2-benzyl-4-(2-chloro-6-fluorobenzyl)-2H-1,2,4-benzothiadiazin-3(4H)-one 1,1-dioxide], the Ki is 26.3 nM.

Take `Cc1ccc(Cl)cc1N1C(=O)N(Cc2c(F)cccc2Cl)c2ccccc2S1(=O)=O` [Example 41, 4-(2-chloro-6-fluorobenzyl)-2-(5-chloro-2-methylphenyl)-2H-1,2,4-benzothiadiazin-3(4H)-one 1,1-dioxide]: the Ki was 25.1 nM.

Take `O=C1N(Cc2c(F)cccc2Cl)c2ccccc2S(=O)(=O)N1c1cccc(Cl)c1` [Example 42, 4-(2-chloro-6-fluorobenzyl)-2-(3-chlorophenyl)-2H-1,2,4-benzothiadiazin-3(4H)-one 1,1-dioxide]: the Ki is 14.1 nM.

Consider `Cc1ccc(N2C(=O)N(Cc3c(F)cccc3Cl)c3ccccc3S2(=O)=O)cc1F` [Example 43, 4-(2-chloro-6-fluorobenzyl)-2-(3-fluoro-4-methylphenyl)-2H-1,2,4-benzothiadiazin-3(4H)-one 1,1-dioxide], for which the Ki is 4.68 nM.

For the compound `O=C1N(Cc2c(F)cccc2Cl)c2ccccc2S(=O)(=O)N1c1ccc(F)cc1` [Example 44, 4-(2-chloro-6-fluorobenzyl)-2-(4-fluorophenyl)-2H-1,2,4-benzothiadiazin-3(4H)-one 1,1-dioxide], the Ki was 31.6 nM.

For the compound `Cc1ccc(N2C(=O)N(Cc3c(F)cccc3Cl)c3ccccc3S2(=O)=O)c(C)c1` [Example 45, 4-(2-chloro-6-fluorobenzyl)-2-(2,4-dimethylphenyl)-2H-1,2,4-benzothiadiazin-3(4H)-one 1,1-dioxide], the Ki was 16.6 nM.

As to `O=C1N(Cc2c(F)cccc2Cl)c2ccccc2S(=O)(=O)N1c1cc(F)ccc1F` [Example 46, 4-(2-chloro-6-fluorobenzyl)-2-(2,5-difluorophenyl)-2H-1,2,4-benzothiadiazin-3(4H)-one 1,1-dioxide], the Ki was 63.1 nM.

For `CCc1cccc(N2C(=O)N(Cc3c(F)cccc3Cl)c3ccccc3S2(=O)=O)c1` [Example 47, 4-(2-chloro-6-fluorobenzyl)-2-(3-ethylphenyl)-2H-1,2,4-benzothiadiazin-3(4H)-one 1,1-dioxide], the Ki is 2.51 nM.

Regarding `CC(C)c1ccc(N2C(=O)N(Cc3c(F)cccc3Cl)c3ccccc3S2(=O)=O)cc1` [Example 48, 4-(2-chloro-6-fluorobenzyl)-2-[4-(propan-2-yl)phenyl]-2H-1,2,4-benzothiadiazin-3(4H)-one 1,1-dioxide], the Ki is 3.72 nM.

As for `CSc1cccc(N2C(=O)N(Cc3c(F)cccc3Cl)c3ccccc3S2(=O)=O)c1` [Example 49, 4-(2-chloro-6-fluorobenzyl)-2-[3-(methylsulfanyl)phenyl]-2H-1,2,4-benzothiadiazin-3(4H)-one 1,1-dioxide], the Ki was 1.05 nM.

For the compound `CSc1cccc(N2C(=O)N(Cc3ccc(F)cc3Cl)c3ccccc3S2(=O)=O)c1` [Example 50, 4-(2-chloro-4-fluorobenzyl)-2-[3-(methylsulfanyl)phenyl]-2H-1,2,4-benzothiadiazin-3(4H)-one 1,1-dioxide], the Ki was 35.5 nM.

Turning to `CSc1cccc(N2C(=O)N(Cc3cc(C)ccc3C)c3ccccc3S2(=O)=O)c1` [Example 51, 4-(2,5-dimethylbenzyl)-2-[3-(methylsulfanyl)phenyl]-2H-1,2,4-benzothiadiazin-3(4H)-one 1,1-dioxide], the Ki is 17.8 nM.

As for `COC(=O)c1ccc(OC)c(CN2C(=O)N(c3cccc(SC)c3)S(=O)(=O)c3ccccc32)c1` [Example 52, methyl 3-({2-[3-(methylsulfanyl)phenyl]-1,1-dioxido-3-oxo-2,3-dihydro-4H-1,2,4-benzothiadiazin-4-yl}methyl)-4-methoxybenzoate], the Ki was 2.63 nM.

In the case of `Cc1ccc(N2C(=O)N(Cc3ccccc3F)c3ccccc3S2(=O)=O)cc1Cl` [Example 53, 4-(2-fluorobenzyl)-2-(3-chloro-4-methylphenyl)-2H-1,2,4-benzothiadiazin-3(4H)-one 1,1-dioxide], the Ki was 31.6 nM.

Take `Cc1ccc(N2C(=O)N(Cc3ccccc3C)c3ccccc3S2(=O)=O)cc1Cl` [Example 54, 4-(2-methylbenzyl)-2-(3-chloro-4-methylphenyl)-2H-1,2,4-benzothiadiazin-3(4H)-one 1,1-dioxide]: the Ki was 43.7 nM.

As to `Cc1cc(C)cc(N2C(=O)N(Cc3ccccc3Cl)c3ccccc3S2(=O)=O)c1` [Example 55, 4-(2-chlorobenzyl)-2-(3,5-dimethylphenyl)-2H-1,2,4-benzothiadiazin-3(4H)-one 1,1-dioxide], the Ki was 30.9 nM.

For `Cc1cc(C)cc(N2C(=O)N(Cc3ccccc3F)c3ccccc3S2(=O)=O)c1` [Example 56, 4-(2-fluorobenzyl)-2-(3,5-dimethylphenyl)-2H-1,2,4-benzothiadiazin-3(4H)-one 1,1-dioxide], the Ki was 20.9 nM.

Take `Cc1ccc(N2C(=O)N(Cc3ccccc3F)c3ccccc3S2(=O)=O)cc1C` [Example 57, 4-(2-fluorobenzyl)-2-(3,4-dimethylphenyl)-2H-1,2,4-benzothiadiazin-3(4H)-one 1,1-dioxide]: the Ki is 23.4 nM.

As for `O=C1N(Cc2ccccc2Cl)c2ccccc2S(=O)(=O)N1Cc1ccccc1` [Example 58, 2-benzyl-4-(2-chlorobenzyl)-2H-1,2,4-benzothiadiazin-3(4H)-one 1,1-dioxide], the Ki was 933 nM.

For `Cc1ccc(N2C(=O)N(Cc3ccccc3Cl)c3ccccc3S2(=O)=O)cc1C` [Example 59, 4-(2-chlorobenzyl)-2-(3,4-dimethylphenyl)-2H-1,2,4-benzothiadiazin-3(4H)-one 1,1-dioxide], the Ki is 43.7 nM.

For the compound `COC(=O)c1ccc(OC)c(CN2C(=O)N(c3ccc(OC)c(OC)c3)S(=O)(=O)c3ccccc32)c1` [Example 60, methyl 3-{[2-(3,4-dimethoxyphenyl)-1,1-dioxido-3-oxo-2,3-dihydro-4H-1,2,4-benzothiadiazin-4-yl]methyl}-4-methoxybenzoate], the Ki was 40.7 nM.

As for `CSc1cccc(N2C(=O)N(CC3CCC3)c3ccccc3S2(=O)=O)c1` [Example 61, 4-(Cyclobutylmethyl)-2-[3-(methylsulfanyl)phenyl]-2H-1,2,4-benzothiadiazin-3(4H)-one 1,1-dioxide], the Ki is 269 nM.

`CSc1cccc(N2C(=O)N(CC3CCCCC3)c3ccccc3S2(=O)=O)c1` [Example 62, 4-(Cyclohexylmethyl)-2-[3-(methylsulfanyl)phenyl]-2H-1,2,4-benzothiadiazin-3(4H)-one 1,1-dioxide]: the Ki is 871 nM.

Source of the values: patent US10316028B2, “Orexin receptor antagonists” (Heptares Therapeutics Limited, priority 2012, dated 2019).
